{"source": "ChEMBL document CHEMBL1121926", "about": "“Adriamycin analogues. Preparation and antitumor evaluation of 7-O-(beta-D-glucosaminyl)daunomycinone and 7-O-(beta-D-glucosaminyl)adriamycinone and their N-trifluoroacetyl derivatives” (1982)", "format_in_all_cases": "functional", "key": {"Mus musculus [1]": {"system": "Mus musculus", "experiment": "Percent increase in life span was calculated against L1210 murine leukemia cells in BDF1 male mice at the specified in vivo dose of 90(mg/kg)/day."}, "Mus musculus [2]": {"system": "Mus musculus", "experiment": "Median day of death was calculated against L1210 murine leukemia cells in BDF1 male mice at the specified in vivo dose of 90(mg/kg)/day"}, "Mus musculus [3]": {"system": "Mus musculus", "experiment": "Percent increase in life span was calculated against L1210 murine leukemia cells in BDF1 male mice at the specified in vivo dose of 120(mg/kg)/day."}, "Mus musculus [4]": {"system": "Mus musculus", "experiment": "Median day of death was calculated against L1210 murine leukemia cells in BDF1 male mice at the specified in vivo dose of 120(mg/kg)/day"}, "Mus musculus [5]": {"system": "Mus musculus", "experiment": "Percent increase in life span was calculated against L1210 murine leukemia cells in BDF1 male mice at the specified in vivo dose of 3.5(mg/kg)/day."}, "Mus musculus [6]": {"system": "Mus musculus", "experiment": "Median day of death was calculated against L1210 murine leukemia cells in BDF1 male mice at the specified in vivo dose of 3.5(mg/kg)/day"}}}
{"smiles": "COc1cccc2c1C(=O)c1c(O)c3c(c(O)c1C2=O)C[C@@](O)(C(C)=O)C[C@@H]3O[C@@H]1O[C@H](CO)[C@@H](O)[C@H](O)[C@H]1N", "values": [{"measurement": "Increase in life-span", "setting": "Mus musculus [1]", "result": 60, "unit": "%"}, {"measurement": "Median day of death", "setting": "Mus musculus [2]", "result": 16}]}
{"smiles": "COc1cccc2c1C(=O)c1c(O)c3c(c(O)c1C2=O)C[C@@](O)(C(=O)CO)C[C@@H]3OC1OC(CO)C(O)C(O)C1N", "note": "(stereo partly specified)", "values": [{"measurement": "Increase in life-span", "setting": "Mus musculus [3]", "result": 40, "unit": "%"}, {"measurement": "Median day of death", "setting": "Mus musculus [4]", "result": 14}]}
{"smiles": "COc1cccc2c1C(=O)c1c(O)c3c(c(O)c1C2=O)C[C@@](O)(C(=O)CO)C[C@@H]3O[C@H]1C[C@H](N)[C@H](O)[C@H](C)O1", "note": "[DOXORUBICIN]", "values": [{"measurement": "Increase in life-span", "setting": "Mus musculus [5]", "result": 40, "unit": "%"}, {"measurement": "Median day of death", "setting": "Mus musculus [6]", "result": 14}]}
